Values of other authors as cited in US8607989B2, “Filter composites for drug detoxification” (Vascular Vision Pharmaceutical Co., priority 2009, dated 2013).

Tested on: breast, colon, and gastric cancer; renal cell carcinoma; and sarcoma

SMILES: O=C1[O][Pt]2([NH][C@@H]3CCCC[C@H]3[NH]2)[O]C1=O [Oxaliplatin]
- activity in in vivo studies: active
